Measurements published in patent publication US12077503B2, “Substituted cyclic amides and their use as herbicides” (FMC CORPORATION, priority 2015, dated 2024).

How the values were obtained:
Assay type in all cases: in vivo
Kochia (Kochia scoparia) [1] = test: Test A preemergence; details: Bassia scoparia, pre-emergence, 240 h; for pest or weed control at 125 g/ha: 125 g ai/ha, preemergence, 0 to 100 scale where 0 is no effect and 100 is complete control, read-out: Kochia plant response rating; for pest or weed control at 500 g/ha: 500 g ai/ha, Preemergence, visual injury vs untreated controls after approximately 10 d, read-out: Kochia plant response rating (0 to 100 scale where 0 is no effect and 100 is complete control)
Procedure, shortened: (§1)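 Each rating is a visual injury score from 0 to 100 given about 10 d after treatment, judged against untreated controls kept alongside in the greenhouse. In loam soil–sand blend, seeds got a preemergence directed soil spray, while postemergence plants were 2 to 10 cm tall at spraying.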

[2] = tested on: barnyardgrass (Echinochloa crus-galli); test: Test A preemergence; details: Echinochloa crus-galli, pre-emergence, 240 h; for pest or weed control at 125 g/ha: 125 g ai/ha, preemergence, 0 to 100 scale where 0 is no effect and 100 is complete control, read-out: Barnyardgrass plant response rating; for pest or weed control at 500 g/ha: 500 g ai/ha, Preemergence, visual injury vs untreated controls after approximately 10 d, read-out: Barnyardgrass plant response rating (0 to 100 scale where 0 is no effect and 100 is complete control)
Procedure, shortened: as §1

[3] = tested on: giant foxtail (Setaria faberii); test: Test A preemergence; details: Setaria faberi, pre-emergence, 240 h; for pest or weed control at 125 g/ha: 125 g ai/ha, preemergence, 0 to 100 scale where 0 is no effect and 100 is complete control, read-out: Foxtail, Giant plant response rating; for pest or weed control at 500 g/ha: 500 g ai/ha, Preemergence, visual injury vs untreated controls after approximately 10 d, read-out: Foxtail, Giant plant response rating (0 to 100 scale where 0 is no effect and 100 is complete control)
Procedure, shortened: as §1

[4] = tested on: pigweed (Amaranthus retroflexus); test: Test A preemergence; details: Amaranthus retroflexus, pre-emergence, 240 h; for pest or weed control at 125 g/ha: 125 g ai/ha, preemergence, 0 to 100 scale where 0 is no effect and 100 is complete control, read-out: Pigweed plant response rating; for pest or weed control at 500 g/ha: 500 g ai/ha, Preemergence, visual injury vs untreated controls after approximately 10 d, read-out: Pigweed plant response rating (0 to 100 scale where 0 is no effect and 100 is complete control)
[5] = tested on: ragweed (common ragweed, Ambrosia elatior); test: Test A preemergence; details: Ambrosia artemisiifolia, pre-emergence, 240 h; for pest or weed control at 125 g/ha: 125 g ai/ha, preemergence, 0 to 100 scale where 0 is no effect and 100 is complete control, read-out: Ragweed plant response rating; for pest or weed control at 500 g/ha: 500 g ai/ha, Preemergence, visual injury vs untreated controls after approximately 10 d, read-out: Ragweed plant response rating (0 to 100 scale where 0 is no effect and 100 is complete control)
Procedure, shortened: as §1

[6] = tested on: ryegrass, Italian (Italian ryegrass, Lolium multiflorum); test: Test A preemergence; details: Lolium multiflorum, pre-emergence, 240 h; for pest or weed control at 125 g/ha: 125 g ai/ha, preemergence, 0 to 100 scale where 0 is no effect and 100 is complete control, read-out: Ryegrass, Italian plant response rating; for pest or weed control at 500 g/ha: 500 g ai/ha, Preemergence, visual injury vs untreated controls after approximately 10 d, read-out: Ryegrass, Italian plant response rating (0 to 100 scale where 0 is no effect and 100 is complete control)
Procedure, shortened: as §1

[7] = tested on: Galium (catchweed bedstraw, Galium aparine); test: Test A postemergence; details: Galium, post-emergence, 240 h, 125 g ai/ha, postemergence, visual injury rating after approximately 10 d; read-out: Galium plant response rating (0 to 100 scale, 0 no effect, 100 complete control)
Procedure, shortened: as §1

Kochia (Kochia scoparia) [8] = test: Test A postemergence; details: Bassia scoparia, post-emergence, 240 h, 125 g ai/ha, postemergence, visual injury rating after approximately 10 d; read-out: Kochia plant response rating (0 to 100 scale, 0 no effect, 100 complete control)
Procedure, shortened: as §1

[9] = tested on: barnyardgrass (Echinochloa crus-galli); test: Test A postemergence; details: Echinochloa crus-galli, post-emergence, 240 h, 125 g ai/ha, postemergence, visual injury rating after approximately 10 d; read-out: Barnyardgrass plant response rating (0 to 100 scale, 0 no effect, 100 complete control)
Procedure, shortened: as §1

[10] = tested on: blackgrass (Alopecurus myosuroides); test: Test A postemergence; details: Alopecurus myosuroides, post-emergence, 240 h, 125 g ai/ha, postemergence, visual injury rating after approximately 10 d; read-out: Blackgrass plant response rating (0 to 100 scale, 0 no effect, 100 complete control)
Procedure, shortened: as §1

corn (Zea mays) = test: Test A postemergence; details: Zea mays, post-emergence, 240 h, 125 g ai/ha, postemergence, visual injury rating after approximately 10 d; read-out: Corn plant response rating (0 to 100 scale, 0 no effect, 100 complete control)
Procedure, shortened: as §1

[11] = tested on: giant foxtail (Setaria faberii); test: Test A postemergence; details: Setaria faberi, post-emergence, 240 h, 125 g ai/ha, postemergence, visual injury rating after approximately 10 d; read-out: Foxtail, Giant plant response rating (0 to 100 scale, 0 no effect, 100 complete control)
Procedure, shortened: as §1

[12] = tested on: pigweed (Amaranthus retroflexus); test: Test A postemergence; details: Amaranthus retroflexus, post-emergence, 240 h, 125 g ai/ha, postemergence, visual injury rating after approximately 10 d; read-out: Pigweed plant response rating (0 to 100 scale, 0 no effect, 100 complete control)
Procedure, shortened: as §1

[13] = tested on: ragweed (common ragweed, Ambrosia elatior); test: Test A postemergence; details: Ambrosia artemisiifolia, post-emergence, 240 h, 125 g ai/ha, postemergence, visual injury rating after approximately 10 d; read-out: Ragweed plant response rating (0 to 100 scale, 0 no effect, 100 complete control)
Procedure, shortened: as §1

[14] = tested on: ryegrass, Italian (Italian ryegrass, Lolium multiflorum); test: Test A postemergence; details: Lolium multiflorum, post-emergence, 240 h, 125 g ai/ha, postemergence, visual injury rating after approximately 10 d; read-out: Ryegrass, Italian plant response rating (0 to 100 scale, 0 no effect, 100 complete control)
Procedure, shortened: as §1

[15] = tested on: wheat (Triticum aestivum); test: Test A postemergence; details: Triticum aestivum, post-emergence, 240 h, 125 g ai/ha, postemergence, visual injury rating after approximately 10 d; read-out: Wheat plant response rating (0 to 100 scale, 0 no effect, 100 complete control)
Procedure, shortened: as §1

| Structure (SMILES) | pest or weed control at 125 g/ha (Kochia (Kochia scoparia) [1]) [%] | pest or weed control at 500 g/ha (Kochia (Kochia scoparia) [1]) [%] | pest or weed control at 125 g/ha [2] [%] | pest or weed control at 500 g/ha [2] [%] | pest or weed control at 125 g/ha [3] [%] | pest or weed control at 500 g/ha [3] [%] | pest or weed control at 125 g/ha [4] [%] | pest or weed control at 500 g/ha [4] [%] | pest or weed control at 125 g/ha [5] [%] | pest or weed control at 500 g/ha [5] [%] | pest or weed control at 125 g/ha [6] [%] | pest or weed control at 500 g/ha [6] [%] | pest or weed control at 125 g/ha [7] [%] | pest or weed control at 125 g/ha (Kochia (Kochia scoparia) [8]) [%] | pest or weed control at 125 g/ha [9] [%] | pest or weed control at 125 g/ha [10] [%] | plant injury at 125 g/ha (corn (Zea mays)) [%] | pest or weed control at 125 g/ha [11] [%] | pest or weed control at 125 g/ha [12] [%] | pest or weed control at 125 g/ha [13] [%] | also measured |
| --- | --- | --- | --- | --- | --- | --- | --- | --- | --- | --- | --- | --- | --- | --- | --- | --- | --- | --- | --- | --- | --- |
| CN1C[C@H](c2cccc(COC(F)F)c2)[C@@H](C(=O)Nc2ccccc2S(C)(=O)=O)C1=O [Compound 877] | 60 | 80 | 90 | 100 | 90 | 90 | 0 | 0 | 0 | 60 | 0 | 20 | 20 | 20 | 60 | 0 | 0 | 70 | 0 | 0 | pest or weed control at 125 g/ha [14]: 20%; plant injury at 125 g/ha [15]: 30% |
| COc1c(F)ccc([C@H]2CNC(=O)[C@@H]2C(=O)Nc2ccccc2F)c1Cl [Compound 881] | 30 | 60 | 80 | 90 | 80 | 90 | 0 | 0 | 0 | 0 | 30 | 60 | 0 | 30 | 90 | 0 | 0 | 80 | 0 | 0 | pest or weed control at 125 g/ha [14]: 30%; plant injury at 125 g/ha [15]: 0% |
| COc1c(F)ccc([C@H]2CNC(=O)[C@@H]2C(=O)Nc2cccc(F)c2F)c1Cl [Compound 882] | 70 | 90 | 90 | 90 | 70 | 90 | 20 | 20 | 30 | 60 | 0 | 30 | 50 | 60 | 80 | 40 | 80 | 70 | 30 | 0 | pest or weed control at 125 g/ha [14]: 40%; plant injury at 125 g/ha [15]: 0% |
